Read-outs that look alike come from different tables or passages of the source.
Target: Active Human ERK2 (hERK2) (Homo sapiens (Human), UniProt P28482)
Experiment: Active Human ERK2 (hERK2) Activity Assay (IMAP-FP)
Assay type: biochemical
Method in brief: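 Reaction contains 0.5 nM activated hERK2, 900 nM unlabeled plus 80 nM labeled peptide and 30 μM ATP, run 60 min. Quenched with IMAP binding beads in buffer with 24 mM NaCl; fluorescence polarization read after 60 min binding equilibration.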

[1] = phosphorylated active hERK2, 30 μM ATP, average, read-out: ERK 2 Human average IC50
[2] = read-out: AERK2 IC50 (Active human ERK2 Activity Assay)

Chain of Active Human ERK2 (hERK2) (P28482 whole entry): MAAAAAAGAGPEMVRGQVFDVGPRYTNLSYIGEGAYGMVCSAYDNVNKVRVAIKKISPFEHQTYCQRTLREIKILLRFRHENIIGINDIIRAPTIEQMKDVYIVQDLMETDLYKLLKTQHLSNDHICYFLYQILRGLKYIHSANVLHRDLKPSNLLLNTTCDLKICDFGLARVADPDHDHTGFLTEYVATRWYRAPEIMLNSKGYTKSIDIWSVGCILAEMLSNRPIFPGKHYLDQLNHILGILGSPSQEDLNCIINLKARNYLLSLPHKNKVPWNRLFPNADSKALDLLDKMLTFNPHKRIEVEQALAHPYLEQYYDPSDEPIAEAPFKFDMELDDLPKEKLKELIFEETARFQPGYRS

Structure (SMILES): Cc1cc(-c2n[nH]c3cc(NC(=O)N[C@@H](C)c4ccc(Cl)c(C)c4)ncc23)ccn1 [Example 340]
- IC50 [1]: 723 nM

Structure (SMILES): Cc1cc(-c2n[nH]c3cc(NC(=O)NCc4cn[nH]c4)ncc23)ccn1 [Example 420]
- IC50 [1]: 2.55 nM

Structure (SMILES): O=C(NCC1CCOC1)Nc1cc2[nH]nc(-c3ccc(F)cc3)c2cn1 (centres unmarked) [Example 220]
- IC50 [1]: 2.46 nM

Structure (SMILES): COCCOC[C@@H](NC(=O)Nc1cc2[nH]nc(-c3cc(C)on3)c2cn1)c1ccccc1 [Example 700]
- IC50 [1]: 11.9 nM

Structure (SMILES): Cc1cc(-c2n[nH]c3cc(NC(=O)N[C@H]4CN(C)C[C@@H]4c4ccccc4C(F)(F)F)ncc23)ccn1 [Example 178, 1-((3R,4S)-1-Methyl-4-(2-(trifluoromethyl)phenyl)pyrrolidin-3-yl)-3-(3-(2-methylpyridin-4-yl)-1H-pyrazolo[4,3-c]pyridin-6-yl)urea]
- IC50 [1]: 0.527 nM

Structure (SMILES): Cc1cc(-c2n[nH]c3c(F)c(NC(=O)NCc4ccccc4)ncc23)ccn1 [Example 536]
- IC50 [1]: 1.14 nM

Structure (SMILES): Cc1cc(-c2n[nH]c3cc(NC(=O)NC4(c5ccccc5)CC4)ncc23)ccn1 [Example 350]
- IC50 [1]: 10.6 nM

Structure (SMILES): COCCN(Cc1cccnc1)C(=O)Nc1cc2[nH]nc(-c3ccnc(C)c3)c2cn1 [Example 50, 1-(2-methoxyethyl)-3-[3-(2-methylpyridin-4-yl)-1H-pyrazolo[4,3-c]pyridin-6-yl]-1-(pyridin-3-ylmethyl)urea]
- IC50 [1]: 899 nM

Structure (SMILES): C[C@@H](NC(=O)Nc1ncc2c(C#N)n[nH]c2c1F)c1ccccc1 [Example 540]
- IC50 [1]: 946 nM

Structure (SMILES): Cc1cc(-c2n[nH]c3cc(NC(=O)NCC4(O)CC4)ncc23)ccn1 [Example 37]
- IC50 [1]: 9.9 nM

Structure (SMILES): Cc1cc(-c2n[nH]c3cc(NC(=O)N[C@H]4[C@H](c5ccccc5C)CN(C)[C@H]4C)ncc23)ccn1 [Example 555]
- IC50 [1]: 0.426 nM

Structure (SMILES): Cc1cc(-c2n[nH]c3cc(NC(=O)NC(C)(C)c4ccc(Cl)cc4)ncc23)ccn1 [Example 70, 1-[1-(4-chlorophenyl)-1-methylethyl]-3-[3-(2-methylpyridin-4-yl)-1H-pyrazolo[4,3-c]pyridin-6-yl]urea]
- IC50 [1]: 10.2 nM

Structure (SMILES): COC(=O)[C@@H](NC(=O)Nc1cc2[nH]nc(-c3ccnc(C)c3)c2cn1)C(C)C [Example 460]
- IC50 [1]: 160 nM

Structure (SMILES): Cc1cc(-c2n[nH]c3cc(NC(=O)NCc4cccc(F)c4)ncc23)ccn1 [Example 53, 1-(3-fluorobenzyl)-3-[3-(2-methylpyridin-4-yl)-1H-pyrazolo[4,3-c]pyridin-6-yl]urea]
- IC50 [1]: 0.245 nM
- IC50 [2]: 0.2 to 1.7 nM

Structure (SMILES): CCOC[C@@H](NC(=O)Nc1cc2[nH]nc(-c3cc(C)on3)c2cn1)c1ccccc1 [Example 698]
- IC50 [1]: 6.78 nM

Structure (SMILES): CO[C@@H]1CN(C)C[C@H]1NC(=O)Nc1cc2[nH]nc(-c3ccc(F)cc3)c2cn1 [Example 318]
- IC50 [1]: 30.2 nM

Structure (SMILES): Cc1cc(-c2n[nH]c3cc(NC(=O)NCc4ncc(F)cc4F)ncc23)ccn1 [Example 450]
- IC50 [1]: 1.91 nM

Structure (SMILES): Cc1cc(-c2n[nH]c3cc(NC(=O)NC4CCc5nc(N)sc5C4)ncc23)ccn1 (centres unmarked) [Example 504]
- IC50 [1]: 1.36 nM

Structure (SMILES): Cc1cc(-c2n[nH]c3cc(NC(=O)NC[C@@H](C)c4ccccc4)ncc23)ccn1 [Example 622]
- IC50 [1]: 0.789 nM

Structure (SMILES): Cc1cc(-c2n[nH]c3cc(NC(=O)NC=C4CC4)ncc23)ccn1 [Example 38, 1-(cyclopropylidenemethyl)-3-[3-(2-methylpyridin-4-yl)-1H-pyrazolo[4,3-c]pyridin-6-yl]urea]
- IC50 [1]: 481 nM

Structure (SMILES): Cc1cc(-c2n[nH]c3cc(NC(=O)NCc4cccc(C)n4)ncc23)ccn1 [Example 315]
- IC50 [1]: 1.93 nM

Structure (SMILES): Cc1cc(-c2n[nH]c3cc(NC(=O)NCC(F)(F)CO)ncc23)ccn1 [Example 190]
- IC50 [1]: 3.81 nM

Structure (SMILES): C[C@@H](NC(=O)Nc1cc2[nH]nc(C(=O)N3CC(=O)N(C)C3)c2cn1)c1ccccc1 [Example 120]
- IC50 [1]: 60.4 nM

Structure (SMILES): Cc1cc(-c2n[nH]c3cc(NC(=O)NC4CCc5ccccc54)ncc23)ccn1 (centres unmarked) [Example 78, 1-(2,3-dihydro-1H-inden-1-yl)-3-[3-(2-methylpyridin-4-yl)-1H-pyrazolo[4,3-c]pyridin-6-yl]urea]
- IC50 [1]: 5.39 nM

Structure (SMILES): Cc1cc(-c2n[nH]c3cc(NC(=O)N[C@H](CN(C)C)c4ccccc4)ncc23)ccn1 [Example 482]
- IC50 [1]: 0.29 nM

Structure (SMILES): Cc1cc(-c2n[nH]c3cc(NC(=O)NCc4ncccc4F)ncc23)ccn1 [Example 447]
- IC50 [1]: 2.62 nM

Structure (SMILES): COCCOC[C@@H](NC(=O)Nc1cc2[nH]nc(C(F)F)c2cn1)c1ccccc1 [Example 694]
- IC50 [1]: 6.03 nM

Structure (SMILES): COCCn1cc(-c2n[nH]c3cc(NC(=O)N[C@H](C)c4ccccc4)ncc23)cn1 [Example 289]
- IC50 [1]: 28 nM

Structure (SMILES): Cc1cc(-c2n[nH]c3cc(NC(=O)NCc4c[nH]nn4)ncc23)ccn1 [Example 431]
- IC50 [1]: 2.52 nM

Structure (SMILES): Cc1cc(-c2n[nH]c3cc(NC(=O)N[C@H](C)c4ccc(C(F)(F)F)nc4)ncc23)ccn1 [Example 527]
- IC50 [1]: 567 nM

Structure (SMILES): Cc1cc(-c2n[nH]c3cc(NC(=O)NCc4ccc5ccccc5c4)ncc23)ccn1 [Example 45, 1-[3-(2-methylpyridin-4-yl)-1H-pyrazolo[4,3-c]pyridin-6-yl]-3-(naphthalen-2-ylmethyl)urea]
- IC50 [1]: 2.74 nM

Structure (SMILES): CCNC(=O)[C@H]1C[C@@H]1c1n[nH]c2cc(NC(=O)N[C@H](COC)c3ccccc3)ncc12 [Example 170, (1S,2S)—N-ethyl-2-(6-(3-((S)-2-methoxy-1-phenylethyl)ureido)-1H-pyrazolo[4,3-c]pyridin-3-yl)cyclopropanecarboxamide]
- IC50 [1]: 0.715 nM

Structure (SMILES): Cc1cc(-c2n[nH]c3cc(NC(=O)N[C@@H](CN)c4ccccc4)ncc23)ccn1 [Example 331]
- IC50 [1]: 29.1 nM

Structure (SMILES): Cc1cc(-c2n[nH]c3cc(NC(=O)NCC4CNC(c5ccccc5)C4)ncc23)ccn1 (centres unmarked) [Example 409]
- IC50 [1]: 5.69 nM

Structure (SMILES): Cc1cc(-c2n[nH]c3cc(NC(=O)NCc4cncc(F)c4)ncc23)ccn1 [Example 51, 1-[(5-fluoropyridin-3-yl)methyl]-3-[3-(2-methylpyridin-4-yl)-1H-pyrazolo[4,3-c]pyridin-6-yl]urea]
- IC50 [1]: 1 nM
- IC50 [2]: 0.2 to 1.7 nM

Structure (SMILES): COc1cc(-c2n[nH]c3cc(NC(=O)N[C@H](C)c4ccc(F)cc4)ncc23)ccn1 [Example 310]
- IC50 [1]: 6.52 nM

Structure (SMILES): C[C@@H](NC(=O)Nc1cc2[nH]nc(-c3ccc(C#N)cc3)c2cn1)c1ccc(F)cc1 [Example 83, 1-[3-(4-cyanophenyl)-1H-pyrazolo[4,3-c]pyridin-6-yl]-3-[(1R)-1-(4-fluorophenyl)ethyl]urea]
- IC50 [1]: 3.28 nM

Structure (SMILES): C[C@@H](NC(=O)Nc1cc2[nH]nc(-c3cc[n+]([O-])cc3)c2cn1)c1ccccc1 [Example 93, 1-[3-(1-oxidopyridin-4-yl)-1H-pyrazolo[4,3-c]pyridin-6-yl]-3-[(1R)-1-phenylethyl]urea]
- IC50 [1]: 0.383 nM
- IC50 [2]: 0.2 to 1.7 nM

Structure (SMILES): Cc1cc(-c2n[nH]c3cc(NC(=O)N[C@H]4CN(C)[C@H](C(F)F)[C@@H]4c4ccccc4)ncc23)ccn1 [Example 569]
- IC50 [1]: 1.48 nM

Structure (SMILES): COc1cccc(F)c1CN1CCC[C@@H](NC(=O)Nc2cc3[nH]nc(-c4ccnc(F)c4)c3cn2)C1 [Example 649]
- IC50 [1]: 1.06 nM

Structure (SMILES): CC(O)c1n[nH]c2cc(NC(=O)N[C@H](C)c3ccccc3)ncc12 (some centres unmarked) [Example 618]
- IC50 [1]: 22.8 nM

Structure (SMILES): COC[C@@H](NC(=O)Nc1cc2[nH]nc(-c3ccc(-n4ccnn4)cc3)c2cn1)c1ccc(F)cc1 [Example 307]
- IC50 [1]: 1.75 nM

Structure (SMILES): C[C@@H](NC(=O)Nc1cc2[nH]nc(C3CCCC3)c2cn1)c1ccccc1 [Example 653]
- IC50 [1]: 4.16 nM

Structure (SMILES): C[C@@H](NC(=O)Nc1cc2[nH]nc(-c3cnc(O)nc3)c2cn1)c1ccccc1 [Example 290]
- IC50 [1]: 0.366 nM
